Measured values: patent US11129861B2, “Methods for treating inflammatory diseases” (OKCHUNDANG CO., LTD., priority 2017, dated 2021)

Assays:
[1] = test system: mice; experiment: Expectorant assay: secondary bronchus histopathology; format: in vivo; conditions: 250 mg/kg orally, 11 days; compared with intact vehicle control
Description: AR, KOG and SKOG were orally administered as same as antitussive assay, once a day for 11 days before phenol red treatment. In addition, AM was also dissolved in distilled water as 25 mg/ml concentrations, and orally administered in a volume of 10 ml/kg (as equivalence to 250 mg/kg), once a day for 11 days before phenol red treatment. In intact vehicle control mice, distilled water 10 ml/kg was orally administered, instead of AR, KOG, SKOG or AM to provide same restrain stresses, in the present experiment. Simultaneously, some parts of individual lung (left lateral lobes) were sampled at trachea excisions, and fixed in 10% NBF, and crossly trimmed. Then embedded in paraffin, sectioned (3˜4 μm) and stained with H&E for general histopathology or PAS (periodic acid schiff) for mucous producing cells, and after that the histopathological profiles of each sample were observed under light microscope. […] The histopathologist was blinds to group distribution when this analysis was made, and at least five repeated measurements in same histological specimens prepared were considered to calculate each mean histomorphometrical value, whenever possible, in this histopathological evaluation.

[2] = Body weight measurements, expectorant assay; format: in vivo, mice; conditions: 250 mg/kg orally
Description: One-hundred twenty one 6-week male SPF/VAF CrljOri: CD1[ICR] mice (OrientBio, Seungnam, Korea; body weight ranged in 29-32 g upon receipt) were prepared, and seven groups of 10 mice each were selected based on the body weights at 7 days after acclimatization based on the body weights (Average:34.75±1.32 g, ranged in 31.6-37.4 g), as follows. Animals husbandries were conducted as same as antitussive assay. All laboratory animals were treated according to the national regulations of the usage and welfare of laboratory animals, and approved by the Institutional Animal Care and Use Committee in Daegu Haany University (Gyeongsan, Gyeongbuk, Korea) [DHU2016-035, Apr. 22, 2016; ANNEX IV].
AR, KOG and SKOG were orally administered as same as antitussive assay, once a day for 11 days before phenol red treatment. In addition, AM was also dissolved in distilled water as 25 mg/ml concentrations, and orally administered in a volume of 10 ml/kg (as equivalence to 250 mg/kg), once a day for 11 days before phenol red treatment. In intact vehicle control mice, distilled water 10 ml/kg was orally administered, instead of AR, KOG, SKOG or AM to provide same restrain stresses, in the present experiment.
Changes of body weights and gains were measured as same methods described in Example 3.

[3] = test system: mice; experiment: Expectorant assay: mucous secretions by phenol red (TLF OD, body surface redness); format: in vivo; conditions: 250 mg/kg orally, 11 days
Description: One-hundred twenty one 6-week male SPF/VAF CrljOri: […] Animals husbandries were conducted as same as antitussive assay. All laboratory animals were treated according to the national regulations of the usage and welfare of laboratory animals, and approved by the Institutional Animal Care and Use Committee in Daegu Haany University (Gyeongsan, Gyeongbuk, Korea) [[…] and SKOG were orally administered as same as antitussive assay, once a day for 11 days before phenol red treatment. In addition, AM was also dissolved in distilled water as 25 mg/ml concentrations, and orally administered in a volume of 10 ml/kg (as equivalence to 250 mg/kg), once a day for 11 days before phenol red treatment. In intact vehicle control mice, distilled water 10 ml/kg was orally administered, instead of AR, KOG, SKOG or AM to provide same restrain stresses, in the present experiment. Mucous secretions were measured by single intraperitoneal injection of 5% phenol red (Junsei Chemical Co. […] After ultrasonic for 15 min using ultrasonicator (Model 5210, Branson Ultrasonics, Danbury, Conn., USA), 1 ml NaHCO3 solution (5%, w/v) add to the normal saline, and optical density of these prepared trachea lavage fluid (TLF) were measured at 546 nm using a microplate reader (Model Sunrise, Tecan, Männedorf, Switzerland) as described previously with some modifications.

[4] = Body weight measurements, anti-inflammatory assay; format: in vivo, mice; conditions: 1 mg/kg orally
Description: (§1) One-hundred thirty two 6-week male SPF/VAF CrljOri:CD1 [ICR] mice (OrientBio, Seungnam, Korea; body weight ranged in 29-32 g upon receipt) were prepared, and eight groups of 10 mice each were selected based on the body weights at 7 days after acclimatization based on the body weights (intact control: 33.88±1.11 g, ranged in 31.8˜35.4 g; Xylene treated mice: 33.85±1.32 g, ranged in 31.1-36.6 g), as follows. Animals husbandries were conducted as same as antitussive and expectorant assays. All laboratory animals were treated according to the national regulations of the usage and welfare of laboratory animals, and approved by the Institutional Animal Care and Use Committee in Daegu Haany University (Gyeongsan, Gyeongbuk, Korea) [DHU2016-036, Apr. 22, 2016; ANNEX V].
AR, KOG and SKOG were orally administered as same as antitussive and expectorant assays, once a day for 11 days before xylene topical applications. In addition, DEXA-water soluble granules were dissolved indistilled water as 1.5 mg/ml concentrations (0.1 mg/ml based on DEXA itself), and also orally administered in a volume of 10 ml/kg (as equivalence to 1 mg/kg based on DEXA itself), once a day for 11 days before xylene topical applications. In intact vehicle and xylene control mice, distilled water 10 ml/kg was orally administered, instead of AR, KOG, SKOG or DEXA to provide same restrain stresses, in the present experiment.
Changes of body weights and gains were measured as same methods described in Example 3 and 4.

[5] = test system: xylene topically applied mice; experiment: Anti-inflammatory assay: ear histopathology; format: in vivo; conditions: 1 mg/kg orally, 11 days; compared with xylene control mice
Description: Acute inflammations were induced by single topical application of 0.03 ml of xylene (Duksan Pure Chemical Co. Ltd., Ansan, Korea) to the anterior surface of the right ear at 1 hour after last 11th test substance administration, as described previously with some modifications. Equal volume of saline was topically applied in intact vehicle mouse ears, instead of xylene, in our experiment.
After ear weight measurement, individual ear samples were fixed in 10% NBF, and crossly trimmed. Then embedded in paraffin, sectioned (3˜4 μm) and stained with Hematoxylin and eosin (H&E) for general histopathology or toluidine blue for mast cells, and after that the histopathological profiles of each sample were observed under light microscope. To more detail changes, mean total, epidermis and dermis thicknesses of the ear anterior surface, numbers of infiltrated inflammatory cells and mast cells on the dermis of ear (cells/mm^2), collagen occupied region percentages on the dermis (%/mm2) were analyzed using a computer assisted image analysis program, according to previously established methods, respectively. The histopathologist was blinds to group distribution when this analysis was made, and at least five repeated measurements in same histological specimens prepared were considered to calculate each mean histomorphometrical value, whenever possible, in this histopathological evaluation.

[6] = test system: xylene topically applied mice; experiment: Anti-inflammatory assay: xylene-induced ear inflammation, ear weight and gross signs; format: in vivo; conditions: 1 mg/kg orally, 11 days; compared with xylene control mice
Description: as §1
AR, KOG and SKOG were orally administered as same as antitussive and expectorant assays, once a day for 11 days before xylene topical applications. […]
Two hours after topical application of xylene, circular sections of induced ear were taken using a cork borer with a 7-mm diameter and weighed as absolute wet-weights, and then the relative weights (% of bodyweights) of the ears were calculated to reduce the differences from individual body weights, as follow Equation [2], in the current experiment. […]

[7] = compared with intact vehicle control
[8] = 11 days, xylene topically applied mice

Nc1c(Br)cc(Br)cc1CN[C@H]1CC[C@H](O)CC1 [AM, ambroxol]
Mean numbers of secondary bronchus epithelial PAS positive mucous producing cells, change [1]: 231.58%
Mean thicknesses of secondary bronchus mucosa, change [1]: 41.69%
Body weight gains (g) [B − A] ([2]; 11 days, expectorant assay): 1.99 ± 0.73 g
Body weights (g) at test material administration First [A] ([2]; 11 days, expectorant assay): 29.23 ± 1.16 g
Body weights (g) at test material administration Last [B] ([2]; 11 days, expectorant assay): 31.22 ± 1.65 g
body weight gains during 11 days, change [2, 7]: 6.42%
body redness (body surface gross findings) ([3]; 30 min after intraperitoneal injection of phenol red, vs intact control): dramatic increases of body redness
TLF OD values, change [3, 7]: 33.95%

C[C@@H]1C[C@H]2[C@@H]3CCC4=CC(=O)C=C[C@]4(C)[C@@]3(F)[C@@H](O)C[C@]2(C)[C@@]1(O)C(=O)CO [DEXA, dexamethasone]
body weight gains during 11 days, change ([4]; 11 days, compared with xylene control mice): −145.10%
Body weight gains (g) [B − A] [4, 8]: −0.92 ± 0.76^ab g
Body weights (g) at test material administration First [A] [4, 8]: 28.72 ± 1.10 g
Body weights (g) at test material administration Last [B] [4, 8]: 27.80 ± 1.66^ab g
body weights during administration period ([4]; from 2 days after initial administration, compared with intact vehicle and xylene control mice): significant (p<0.01 or p<0.05) decreases of body weights
Mean ear dermis thicknesses, change [5]: −60.02%
Mean ear epidermis thicknesses, change [5]: −6.35%
Mean numbers of infiltrated inflammatory cells on the ear dermis, change [5]: −93.13%
Mean numbers of infiltrated mast cells on the ear dermis, change [5]: 647.56%
Mean percentages of collagen occupied regions on the ear dermis, change [5]: 189.63%
Mean total ear thicknesses, change [5]: −62.39%
absolute ear weights, change [6]: −48.52%
relative ear weights, change [6]: −42.61%
